Data from patent US8906852B2 (MethylGene Inc., priority 2010, dated 2014).

These compounds were tested against T1, VEGFR/KDR (Homo sapiens, UniProt P35968) (assay: VEGFR/KDR kinase inhibition, DELFIA assay). Settings: ATP 0.6 uM (2x Km), enzyme 5 nM.
T1 construct: made in house; host or cells: Sf9 cells (Spodoptera frugiperda), baculovirus
Type: biochemical
Method: Inhibition of VEGFR/KDR is measured in a DELFIA™ assay (Perkin Elmer). The substrate poly(Glu4, Tyr) is immobilized onto black high-binding polystyrene 96-well plates. The coated plates are washed and stored at 4° C. During the assay, the enzyme is pre-incubated with inhibitor and Mg-ATP on ice in polypropylene 96-well plates for 4 minutes, and then transferred to the coated plates. The subsequent kinase reaction takes place at 30° C. for 10-30 minutes. ATP concentrations in the assay are 0.6 uM for VEGFR/KDR (2× the Km). Enzyme concentration is 5 nM. After incubation, the kinase reactions are quenched with EDTA and the plates are washed. Phosphorylated product is detected by incubation with Europium-labeled anti-phosphotyrosine MoAb. After washing the plates, bound MoAb is detected by time-resolved fluorescence in a Gemini SpectraMax reader (Molecular Devices). Compounds are evaluated over a range of concentrations, and IC50 values (concentration of compounds giving 50% inhibition of enzymatic activity) are determined.

T1 sequence (P35968 806-1356): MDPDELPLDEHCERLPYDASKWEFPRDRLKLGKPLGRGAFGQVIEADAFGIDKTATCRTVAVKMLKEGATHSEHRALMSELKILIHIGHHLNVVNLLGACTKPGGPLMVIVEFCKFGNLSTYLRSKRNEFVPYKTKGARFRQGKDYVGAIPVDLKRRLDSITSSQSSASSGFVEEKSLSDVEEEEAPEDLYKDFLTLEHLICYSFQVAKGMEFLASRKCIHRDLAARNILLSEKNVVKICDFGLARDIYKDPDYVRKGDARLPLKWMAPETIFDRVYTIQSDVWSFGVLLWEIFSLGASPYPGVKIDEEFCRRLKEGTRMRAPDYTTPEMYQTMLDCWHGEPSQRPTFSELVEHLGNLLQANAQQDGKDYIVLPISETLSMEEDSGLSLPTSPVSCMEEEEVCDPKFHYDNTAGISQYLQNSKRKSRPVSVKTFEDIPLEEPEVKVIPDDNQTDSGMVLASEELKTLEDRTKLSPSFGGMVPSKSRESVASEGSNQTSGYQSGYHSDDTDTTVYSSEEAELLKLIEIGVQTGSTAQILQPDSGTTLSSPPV

Row | Compound | IC50
1 | O=C(Nc1ccc(Oc2ccnc3cc(-c4ccc(CN5CCN(CCc6nnn[nH]6)CC5)cn4)sc23)c(F)c1)NC1CC1 [Compound 512, 1-(4-(2-(5-((4-(2-(1H-tetrazol-5-yl)ethyl)piperazin-1-yl)methyl)pyridin-2-yl)thieno[3,2-b]pyridin-7-yloxy)-3-fluorophenyl)-3-cyclopropylurea] | < 50 nM
2 | O=C(Nc1ccc(Oc2ccnc3cc(-c4cn(CCN5CCOCC5)nn4)sc23)c(F)c1)NC1CC1 [Compound 364] | < 50 nM
3 | CCN(CC)CCNC(=O)c1ccc(NCc2ccc(-c3cc4nccc(Oc5ccc(NC(=O)NC6CC6)cc5F)c4s3)nc2)cc1 [Compound 340, 4-((6-(7-(4-(3-cyclopropylureido)-2-fluorophenoxy)thieno[3,2-b]pyridin-2-yl)pyridin-3-yl)methylamino)-N-(2-(diethylamino)ethyl)benzamide] | < 50 nM
4 | CC(C)(C)OC(=O)NC1CCN(C(=O)Cn2cc(-c3cc4nccc(Oc5ccc(NC(=O)NC6CC6)cc5F)c4s3)nn2)CC1 [Compound 387] | < 50 nM
5 | 1-(2-(6-(7-(2-fluoro-4-nitrophenoxy)thieno[3,2-b]pyridin-2-yl)pyridin-3-yl)ethyl)pyrrolidin-2-one [Compound 293] | < 50 nM
6 | O=C(Nc1ccc(Oc2ccnc3cc(-c4ccc(CN5CCN(CCF)CC5)cn4)sc23)c(F)c1)NC1CC1 [Compound 420, 1-Cyclopropyl-3-(3-fluoro-4-(2-(5-((4-(2-fluoroethyl)piperazin-1-yl)methyl)pyridin-2-yl)thieno[3,2-b]pyridin-7-yloxy)phenyl)urea] | < 50 nM
7 | O=C(Nc1ccc(Oc2ccnc3cc(-c4ccc(CN5CCC[C@H]5C(=O)NCCO)cn4)sc23)c(F)c1)NC1CC1 [Compound 485, (S)-1-((6-(7-(4-(3-cyclopropylureido)-2-fluorophenoxy)thieno[3,2-b]pyridin-2-yl)pyridin-3-yl)methyl)-N-(2-hydroxyethyl)pyrrolidine-2-carboxamide] | < 50 nM
8 | Cn1c(C(=O)NCCN2CCOCC2)cnc1-c1cc2nccc(Oc3ccc(NC(=O)NC4CC4)cc3F)c2s1 [Compound 217, 2-(7-(4-(3-cyclopropylureido)-2-fluorophenoxy)thieno[3,2-b]pyridin-2-yl)-1-methyl-N-(2-morpholinoethyl)-1H-imidazole-5-carboxamide] | < 50 nM

Now from value to compound:

Row | IC50 | Compound
9 | < 50 nM | O=C(O)CCCCN1CCN(Cc2ccc(-c3cc4nccc(Oc5ccc(NC(=O)NC6CC6)cc5F)c4s3)nc2)CC1 [Compound 518, 5-(4-((6-(7-(4-(3-cyclopropylureido)-2-fluorophenoxy)thieno[3,2-b]pyridin-2-yl)pyridin-3-yl)methyl)piperazin-1-yl)pentanoic acid]
10 | < 50 nM | CCOC(=O)CN(C)C1CCN(Cc2ccc(-c3cc4nccc(Oc5ccc(NC(=O)NC6CC6)cc5F)c4s3)nc2)CC1 [Compound 422, Ethyl 2-((1-((6-(7-(4-(3-cyclopropylureido)-2-fluorophenoxy)thieno[3,2-b]pyridin-2-yl)pyridin-3-yl)methyl)piperidin-4-yl)(methyl)amino)acetate]
11 | < 50 nM | CNC1CCN(Cc2ccc(-c3cc4nccc(Oc5ccc(NC(=O)NC6CC6)cc5F)c4s3)nc2)CC1 [Compound 401]
12 | < 50 nM | COCCNCc1ccc(-c2cc3nccc(Oc4ccc(NC(CC(=O)N(C)c5ccccc5)C(F)(F)F)cc4F)c3s2)nc1 (centres unmarked) [Compound 21, 4,4,4-trifluoro-3-(3-fluoro-4-(2-(5-((2-methoxyethylamino)methyl)pyridin-2-yl)thieno[3,2-b]pyridin-7-yloxy)phenylamino)-N-methyl-N-phenylbutanamide]
13 | < 50 nM | O=C(Nc1ccc(Oc2ccnc3cc(-c4ccc(CN5CCC[C@H]5C(=O)O)cn4)sc23)c(F)c1)NC1CC1 [Compound 173, (S)-1-((6-(7-(4-(3-cyclopropylureido)-2-fluorophenoxy)thieno[3,2-b]pyridin-2-yl)pyridin-3-yl)methyl)pyrrolidine-2-carboxylic acid]
14 | < 50 nM | O=C(Nc1ccc(Oc2ccnc3cc(C(=O)N4CC(O)C4)sc23)c(F)c1)NC1CC1 [Compound 462]
